{"source": "patent US7820623B2", "about": "(priority 2006, dated 2010)", "key": {"[1]": {"test_system": "thapsigargin-induced IFN-g production in human whole blood", "assay_type": "cell-based", "details": "for IC50: read-out: Analogue Activity (IC50) WB/IFNg"}, "[2]": {"test_system": "thapsigargin-induced IL-2 production in human whole blood", "details": "for IC50: read-out: Analogue Activity (IC50) WB/IL-2"}, "human Kv1.3 (CHO)": {"molecular_target": "T1, human Kv1.3 (CHO) (Homo sapiens, UniProt P22001)", "T1 construct": "expressed in transfected cells", "T1 sequence (P22001 whole entry)": "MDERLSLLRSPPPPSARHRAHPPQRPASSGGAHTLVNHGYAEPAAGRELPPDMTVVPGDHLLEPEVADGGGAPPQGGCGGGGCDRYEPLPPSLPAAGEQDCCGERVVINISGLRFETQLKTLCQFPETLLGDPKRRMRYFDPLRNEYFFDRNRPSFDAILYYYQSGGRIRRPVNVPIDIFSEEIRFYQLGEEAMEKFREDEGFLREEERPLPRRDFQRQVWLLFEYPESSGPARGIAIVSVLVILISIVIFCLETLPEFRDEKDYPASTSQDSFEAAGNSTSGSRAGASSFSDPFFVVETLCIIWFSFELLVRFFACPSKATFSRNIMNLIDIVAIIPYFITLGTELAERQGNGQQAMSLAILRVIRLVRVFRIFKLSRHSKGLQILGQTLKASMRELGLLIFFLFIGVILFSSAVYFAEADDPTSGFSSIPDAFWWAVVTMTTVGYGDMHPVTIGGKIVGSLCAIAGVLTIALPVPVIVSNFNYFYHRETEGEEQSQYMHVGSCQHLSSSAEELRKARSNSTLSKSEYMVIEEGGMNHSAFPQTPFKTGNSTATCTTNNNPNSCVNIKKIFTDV", "test": "cell-based", "assay_type": "cell-based"}, "human Kv1.1 (HEK293)": {"molecular_target": "T2, human Kv1.1 (HEK293) (Homo sapiens, UniProt Q09470)", "T2 construct": "expressed in transfected cells; host or cells: HEK293", "T2 sequence (Q09470 whole entry)": "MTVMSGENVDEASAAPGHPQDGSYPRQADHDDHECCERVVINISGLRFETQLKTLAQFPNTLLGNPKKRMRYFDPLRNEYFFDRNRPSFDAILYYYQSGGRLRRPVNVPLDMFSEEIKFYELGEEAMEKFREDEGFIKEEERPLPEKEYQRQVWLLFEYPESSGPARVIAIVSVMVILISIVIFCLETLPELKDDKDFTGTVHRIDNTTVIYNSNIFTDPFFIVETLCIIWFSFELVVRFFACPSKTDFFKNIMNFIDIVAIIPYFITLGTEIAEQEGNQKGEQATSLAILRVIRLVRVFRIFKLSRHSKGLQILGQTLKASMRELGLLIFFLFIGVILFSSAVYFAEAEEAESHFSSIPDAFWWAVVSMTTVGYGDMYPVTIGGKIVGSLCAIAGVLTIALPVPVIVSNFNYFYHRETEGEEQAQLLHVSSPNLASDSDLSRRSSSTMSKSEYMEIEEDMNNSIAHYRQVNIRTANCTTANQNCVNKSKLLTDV", "test": "cell-based"}, "human Kv1.1": {"molecular_target": "T3, human Kv1.1 (Homo sapiens, UniProt Q09470)", "T3 construct": "expressed in transfected cells; host or cells: HEK293", "T3 sequence (Q09470 whole entry)": "as above", "assay_type": "cell-based"}, "human Kv1.3": {"molecular_target": "human Kv1.3 (Homo sapiens, UniProt P22001)", "sequence (P22001 whole entry)": "as the sequence (P22001 whole entry) above", "test": "cell-based"}, "[3]": {"test_system": "IL-2R on CD4+ T cells in human whole blood", "assay_type": "cell-based"}, "[4]": {"molecular_target": "HEK 293 cells overexpressing human Kv1.3 (Homo sapiens, UniProt P22001)", "sequence (P22001 whole entry)": "as above", "test": "Immunohistochemistry of binding to HEK 293 cells overexpressing human Kv1.3", "details": "5 μg/ml peptibody", "protocol": "Immunohistochemistry analysis of Fc-L10-ShK[1-35] binding to HEK 293 cells overexpressing human Kv1.3. HEK 293 cells overexpressing human Kv1.3 (HEK Kv1.3) were obtained from BioFocus plc (Cambridge, UK) and maintained per manufacturer's recommendation. The parental HEK 293 cell line was used as a control. Cells were plated on Poly-D-Lysine 24 well plates (#35-4414; Becton-Dickinson, Bedford, Mass.) and allowed to grow to approximately 70% confluence. HEK KV1.3 were plated at 0.5×10e5 cells/well in 1 ml/well of medium. HEK 293 cells were plated at a density of 1.5×10e5 cells/well in 1 ml/well of medium. Before staining, cells were fixed with formalin (Sigma HT50-1-1 Formalin solution, diluted 1:1 with PBS/0.5% BSA before use) by removing cell growth medium, adding 0.2 ml/well formalin solution and incubating at room temperature for ten minutes. Cells were stained by incubating with 0.2 ml/well of 5 μg/ml Fc-L10-ShK[1-35] in PBS/BSA for 30′ at room temperature. Fc-L10-ShK[1-35] was aspirated and then the cells were washed one time with PBS/0.5% BSA. Detection antibody (Goat F(ab)2 anti-human IgG-phycoerythrin; Southern Biotech Associates, Birmingham, Ala.) was added to the wells at 5 μg/ml in PBS/0.5% BSA and incubated for 30′ at room temperature. Wash cells once with PBS/0.5% BSA and examine using confocal microscopy (LSM 510 Meta Confocal Microscope; Carl Zeiss AG, Germany). […]"}, "[5]": {"test_system": "IFNγ production from PMA and αCD3 antibody stimulated human PBMCs", "assay_type": "cell-based"}, "[6]": {"test_system": "IL-2 production from αCD3 and αCD28 antibody stimulated human PBMCs", "assay_type": "cell-based"}, "[7]": {"test_system": "T cell proliferation in human PBMCs", "test": "T cell proliferation (3H-thymidine incorporation) in anti-CD3/anti-CD28 stimulated human PBMCs", "assay_type": "cell-based", "details": "two normal donors", "excerpt": "Inhibition of T cell proliferation following anti-CD3 and anti-CD28 antibody stimulation of PBMCs. PBMC's were previously isolated from normal human donor Leukophoresis packs, purified by density gradient centrifugation (Ficoll Hypaque), cryopreserved in CPZ Cryopreservation Medium Complete (INCELL, MCPZF-100 plus 10% DMSO final). PBMC's were thawed (95% viability), washed, and seeded at 2×10^5 cells per well in culture medium (RPMI medium 1640; GIBCO) supplemented with 10% fetal calf serum, 100 U/ml penicillin, […] streptomycin, 2 mM L-glutamine, 100 μM non-essential amino acids, and 20 μM 2-ME) in 96-well flat-bottom tissue culture plates. Cells were pre-incubated with either anti-human CD32 (FcyRII) blocking antibody (per manufacturers instructions EASY SEP Human Biotin Selection Kit #18553, StemCell Technologies Vancouver, BC) or Fc-L10-ShK (100 nM-0.001 nM final) for 45 min. Fc-L10-ShK (100 nM-0.001 nM final) was then added to the cells containing anti-human CD32 blocking antibody while medium was added to the cells containing Fc-L10-ShK. Both sets were incubated for an additional 45 min before stimulating for 48 hr with aCD3/aCD28 (0.2 ng/ml and 100 ng/ml, respectively). Final assay volume was 200 ul. […] Cells were then harvested onto glass fiber filters and radioactivity was measured in a B-scintillation counter."}, "[8]": {"test_system": "CD40L on CD4+ T cells in human whole blood", "assay_type": "cell-based"}, "[9]": {"molecular_target": "fixed HEK 293 cells stably transfected with human Kv1.3 (Homo sapiens, UniProt P22001)", "sequence (P22001 whole entry)": "as above", "test": "Whole cell immunoassay (ELISA) on fixed HEK 293 cells overexpressing Kv1.3", "assay_type": "binding", "protocol": "Our peptibody reagent can be a useful and convenient tool for monitoring Kv1.3 channel expression in patients and have utility in diagnostic applications. The procedure shown in FIG. 34A and FIG. 34B follows.\nFIG. 34A. A whole cell immunoassay was performed to show binding of intact Fc-L10-ShK[1-35] to Kv1.3 transfected HEK 293 cells (BioFocus plc, Cambridge, UK). Parent HEK 293 cells or HEK Kv1.3 cells were plated at 3×10e4 cells/well in poly-D-Lysine coated ninety-six well plates (#35-4461; Becton-Dickinson, Bedford, Mass.). Cells were fixed with formalin (Sigma HT50-1-1 Formalin solution, diluted 1:1 with PBS/0.5% BSA before use) by removing cell growth medium, adding 0.2 ml/well formalin solution and incubating at room temperature for 25 minutes and then washing one time with 100 μl/well of PBS/0.5% BSA. Wells were blocked by addition of 0.3 ml/well of BSA blocker (50-61-00; KPL 10% BSA Diluent/Blocking Solution, diluted 1:1 with PBS; KPL, Gaithersburg, Md.) followed by incubation at room temperature, with shaking, for 3 hr. Plates were washed 2 times with 1×KP Wash Buffer (50-63-00; KPL). […] Absorbance was read at 450 nm on a Molecular Devices SpectroMax 340 (Sunnyvale, Calif.).\nFIG. 34B. […] Absorbances were read at 405 nm after stopping reactions by addition of 0.1 ml/well of 1% SDS."}, "[10]": {"test_system": "IL-2 production from PMA and αCD3 antibody stimulated human PBMCs", "assay_type": "cell-based"}, "[11]": {"test_system": "IFNγ production from αCD3 and αCD28 antibody stimulated human PBMCs", "assay_type": "cell-based"}}, "note": "Bridge positions count the residues as written; N and C are the ends. Square brackets hold non-standard residues; d marks the D form. Peptide text beside a SMILES is read from it. 1Nal = N[C@@H](Cc1cccc2ccccc12)C(=O)O"}
{"compound": "CC[C@H](C)[C@@H]1NC(=O)[C@H](CCCCN)NC(=O)[C@@H](NC(=O)[C@H](CCCCN)NC(=O)[C@@H](NC(=O)[C@H](CC(N)=O)NC(=O)[C@@H](NC(=O)[C@@H](NC(=O)[C@@H](NC(=O)CN)C(C)C)[C@@H](C)CC)[C@@H](C)CC)C(C)C)CSSC[C@@H]2NC(=O)[C@H](CCCCN)NC(=O)CNC(=O)[C@H](Cc3ccccc3)NC(=O)[C@H](CCCNC(=N)N)NC(=O)[C@H](CCSC)NC(=O)CNC(=O)[C@H](C)NC(=O)[C@H](CCCCN)NC(=O)[C@H](CCCCN)NC(=O)[C@@H]3CSSC[C@@H](C(=O)N[C@H](C(=O)N4CCC[C@H]4C(=O)N[C@@H](CCCCN)C(=O)O)[C@@H](C)O)NC(=O)[C@H](Cc4c[nH]cn4)NC(=O)[C@H](CSSC[C@H](NC(=O)[C@H](CCC(N)=O)NC(=O)[C@H](CCCNC(=N)N)NC(=O)[C@H](CO)NC1=O)C(=O)N[C@@H](CC(C)C)C(=O)N[C@@H](CCC(=O)O)C(=O)N1CCC[C@H]1C(=O)N3)NC(=O)[C@H](Cc1cccc3ccccc13)NC(=O)CNC(=O)[C@H](CC(N)=O)NC(=O)[C@H](CCSC)NC2=O", "note": "[K32Nal] (H-GVIINVKCKISRQCLEPCKKAGMRFGKCMNG[1Nal]CHCTPK-OH; disulfide 8-28, 14-33, 18-35)", "values": [{"measurement": "IC50", "setting": "[1]", "result": 0.196, "unit": "nM"}, {"measurement": "IC50", "setting": "[2]", "result": 0.134, "unit": "nM"}, {"measurement": "IC50", "setting": "human Kv1.3 (CHO)", "result": 0.0261, "unit": "nM"}, {"measurement": "IC50", "setting": "human Kv1.1 (HEK293)", "result": 0.00191, "unit": "nM"}]}
{"compound": "CC[C@H](C)[C@@H]1NC(=O)[C@H](CCCCN)NC(=O)[C@@H](NC(=O)[C@H](CCCCN)NC(=O)[C@@H](NC(=O)[C@H](CC(N)=O)NC(=O)[C@@H](NC(=O)[C@@H](NC(=O)[C@@H](NC(=O)CN)C(C)C)[C@@H](C)CC)[C@@H](C)CC)C(C)C)CSSC[C@@H]2NC(=O)[C@H](CCCCN)NC(=O)CNC(=O)[C@H](Cc3ccccc3)NC(=O)[C@H](CCCNC(=N)N)NC(=O)[C@H](CCSC)NC(=O)CNC(=O)[C@H](C)NC(=O)[C@H](CCCCN)NC(=O)[C@H](CCCCN)NC(=O)[C@@H]3CSSC[C@@H](C(=O)N[C@H](C(=O)N4CCC[C@H]4C(=O)N[C@@H](CCCCN)C(=O)O)[C@@H](C)O)NC(=O)[C@H](Cc4c[nH]cn4)NC(=O)[C@H](CSSC[C@H](NC(=O)[C@H](CCC(N)=O)NC(=O)[C@H](Cc4cccc5ccccc45)NC(=O)[C@H](CO)NC1=O)C(=O)N[C@@H](CC(C)C)C(=O)N[C@@H](CCC(=O)O)C(=O)N1CCC[C@H]1C(=O)N3)NC(=O)[C@H](CCCCN)NC(=O)CNC(=O)[C@H](CC(N)=O)NC(=O)[C@H](CCSC)NC2=O", "note": "[R12Nal] (H-GVIINVKCKIS[1Nal]QCLEPCKKAGMRFGKCMNGKCHCTPK-OH; disulfide 8-28, 14-33, 18-35)", "values": [{"measurement": "IC50", "setting": "[1]", "result": 0.387, "unit": "nM"}, {"measurement": "IC50", "setting": "[2]", "result": 0.46, "unit": "nM"}, {"measurement": "IC50", "setting": "human Kv1.3 (CHO)", "result": 0.0377, "unit": "nM"}, {"measurement": "IC50", "setting": "human Kv1.1 (HEK293)", "result": 0.025, "unit": "nM"}]}
{"compound": "Fc-L10-OSK1[E16K,K20D]: Fc-L10-OSK1 with glutamic acid to lysine at 16 and lysine to aspartic acid at 20", "values": [{"measurement": "blocking activity against Kv1.1", "setting": "human Kv1.1", "result": "removed the blocking activity against Kv1.1"}]}
{"compound": "Fc-L10-OSK1[K7S,E16K,K20D]: Fc-L10-OSK1 with triple substitution K7S, E16K, K20D", "values": [{"measurement": "IC50", "setting": "human Kv1.1; read-out: hKv1.1: IC50", "result": 10, "unit": "nM"}]}
{"compound": "Fc-L10-OSK1[K7S]: Fc-L10-OSK1 with lysine to serine at position 7", "values": [{"measurement": "change in selectivity compared to Fc-L10-OSK1", "setting": "human Kv1.1", "result": 1.3, "unit": "fold"}, {"measurement": "change in Kv1.3 potency compared to Fc-L10-OSK1", "setting": "human Kv1.3", "result": 2, "unit": "fold"}, {"measurement": "fold less potent than the synthetic OSK1 toxin peptide (Kv1.3 IC50)", "setting": "human Kv1.3", "result": "approximately 10 fold"}, {"measurement": "hKv1.1/hKv1.3 selectivity ratio", "setting": "human Kv1.3", "result": 269}, {"measurement": "IC50", "setting": "human Kv1.3; read-out: IC50 for block of the outward potassium current", "result": "0.372 ± 0.071", "unit": "nM"}]}
{"compound": "Fc-L10-ShK[1-35]: Fc region of human IgG1 fused in-frame to L10 linker and a monomer of Kv1.3 inhibitor peptide ShK[1-35]", "values": [{"measurement": "thapsigargin-induced upregulation of the IL-2R on T cells", "setting": "[3]", "result": "suppressed"}, {"measurement": "staining of cells", "setting": "[4]", "result": "stains HEK 293 cells stably transfected with human Kv1.3"}, {"measurement": "inhibition of IFNγ production", "setting": "[5]", "result": "complete inhibition"}, {"measurement": "inhibition of IL-2 production", "setting": "[6]", "result": "nearly complete inhibition"}, {"measurement": "inhibition of T cell proliferation", "setting": "[7]", "result": "potently inhibits proliferation of T cells in a dose-dependent manner"}, {"measurement": "thapsigargin-induced upregulation of CD40L on T cells", "setting": "[8]", "result": "suppressed"}, {"measurement": "enzyme-immunoassay response on fixed Kv1.3 transfected cells", "setting": "[9]", "result": "dose-dependent increase in response"}, {"measurement": "inhibition of IL-2 production", "setting": "[10]", "result": "complete inhibition"}, {"measurement": "inhibition of IFNg production", "setting": "[11]", "result": "nearly complete inhibition"}]}
{"compound": "IbTx: BKCa channel inhibitor iberiotoxin, purchased from Bachem (QFTDVDCSVSKECWSVCKDLFGVDRGKCMGKKCRCYQ; Definition of Artificial Sequence: Synthetic peptide) [reference compound]", "values": [{"measurement": "thapsigargin-induced upregulation of the IL-2R on T cells", "setting": "[3]", "result": "no significant activity"}, {"measurement": "thapsigargin-induced IFN-g production in human whole blood", "setting": "[1]", "result": "no significant activity"}, {"measurement": "thapsigargin-induced IL-2 production in human whole blood", "setting": "[2]", "result": "no significant activity"}, {"measurement": "thapsigargin-induced upregulation of CD40L on T cells", "setting": "[8]", "result": "no significant activity"}]}
